Among the data in US7144903B2, “CCR4 antagonists” (Amgen Inc., priority 2001, dated 2006) are IC50 values, retold here.

This experiment has as its target T1, CCR4 (Homo sapiens, UniProt P51679).
T1 construct: cells expressing CCR4 (e.g., CEM cells, available from the ATCC); host or cells: CEM cells
T1 sequence (P51679 1-360): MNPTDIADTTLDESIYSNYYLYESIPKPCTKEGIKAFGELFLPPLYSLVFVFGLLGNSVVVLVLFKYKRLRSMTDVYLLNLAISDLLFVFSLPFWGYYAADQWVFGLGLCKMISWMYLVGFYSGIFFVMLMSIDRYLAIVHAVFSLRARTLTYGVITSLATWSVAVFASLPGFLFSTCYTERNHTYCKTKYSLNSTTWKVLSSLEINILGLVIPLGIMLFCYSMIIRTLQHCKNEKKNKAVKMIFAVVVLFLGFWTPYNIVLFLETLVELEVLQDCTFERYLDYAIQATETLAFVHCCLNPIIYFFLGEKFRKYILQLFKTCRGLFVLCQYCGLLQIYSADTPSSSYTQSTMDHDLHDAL
The experiment in a line: CCR4 binding assay: inhibition of 125I-TARC binding to cells expressing CCR4 (e.g., CEM cells). The text has this: This example illustrates a CCR4 binding assay that can be used for evaluating the compounds of the present invention.
Detection of Radiolabelled TARC and/or MDC Binding to CCR4
^125I-labelled TARC and MDC are available from commercial sources (e.g., Amersham-Pharmacia or Perkin Elmer Life Sciences). All buffers and materials are available from commercial sources (e.g., Gibco BRL, Sigma). To measure binding of ^125I-TARC or ^125I-MDC to cells expressing CCR4 (e.g., CEM cells, available from the ATCC), the ^125I-TARC or ^125I-MDC is diluted to a concentration of approximately 200 pM in a buffered saline solution (e.g., RPMI supplemented with 0.5% bovine serum albumin), and added to an equal volume of a suspension of cells (e.g., CEM cells at 5×10^6 cells/mL). The resulting mixture is incubated for a period of time (e.g., 2 hours). The unbound ^125I-TARC or ^125I-MDC is separated from the cells by filtration, e.g., by passage through GF/B filter plate (Packard Biosciences) pre-treated with 0.3% polyethyleneimine (Sigma), using a Packard Filtermate 96 (Packard Biosciences). The amount of ^125I-TARC or ^125I-MDC retained with the cells on the filterplate is measured by adding a small amount of scintillation fluid (e.g., 50 μL of Microscint-20, obtained from Packard Biosciences), and reading scintillation on appropriate detection equipment, e.g., a Packard TopCount 383 (Packard Biosciences).
Non-specific binding of ^125I-TARC or ^125I-MDC can be estimated by measuring the amount of ^125I-TARC or ^125I-MDC retained with the cells on the filterplate when the assay is performed in the presence of a large excess of unlabelled TARC or MDC.
Inhibition of ^125I-TARC or ^125I-MDC binding to CCR4 is defined as a decrease in the retention of ^125I-TARC or ^125I-MDC to the cells on the filterplate.
The assay described above varies only moderately from standardly used procedures, e.g., Imai et al. (1997) J. Biol. Chem. 272:15036–15042, Imai et al. (1998) J. Biol. Chem. 273:1764–1768.

Setting [1] is: CCR4 antagonist activity, inhibition of 125I-TARC binding, read-out: IC50.

Where two headings read alike, the source gives them in different places.

Usually IC50 stands for the concentration needed to halve the response being measured.

Take `Cn1ccc2c(Nc3nc(CN(Cc4ccccc4OC(F)(F)F)CC4CCCCC4)cs3)cccc21` [Compound 24, (4-{[Cyclohexylmethyl-(2-trifluoromethoxy-benzyl)-amino]-methyl}-thiazol-2-yl)-(1-methyl-1H-indol-4-yl)-amine]: the IC50 under setting [1] was < 1000 nM.
In the case of `FC(F)(F)c1ccccc1CN(Cc1csc(Nc2cccc3ncccc23)n1)CC1CCCCC1` [Compound 35], under setting [1], the IC50 is < 1000 nM.
On the same count and under the same terms, for `CC(C)c1csc(Nc2cccc3ccccc23)n1` [Compound 12] the value was > 1000 nM; for `Cn1ccc2c(Nc3nc(C(C)(C)C)cs3)cccc21` [Compound 21, (4-tert-Butyl-thiazol-2-yl)-(1-methyl-1H-indol-4-yl)-amine], < 1000 nM; for `Cc1cccc(Nc2nc(C(C)(C)C)cs2)c1C` [Compound 2], > 1000 nM.
The same measure, in the same setting: for `CC(C)(C)c1csc(Nc2cccc3ccccc23)n1` [Compound 11] the value was > 1000 nM; for `Cc1cccc(Nc2nc(CN(CC(C)C)CC(C)C)co2)c1C` [Compound 45, {4-[(Diisobutylamino)-methyl]-oxazol-2-yl}-(2,3-dimethyl-phenyl)-amine], < 1000 nM.
Still for that read-out and setting: with `CCCc1sc(Nc2cccc3ccccc23)nc1C(C)(C)C` [Compound 9] the figure was > 1000 nM; with `c1ccc(CN2CCc3sc(Nc4cccc5ccccc45)nc3C2)cc1` [Compound 19], < 1000 nM.
As for `CC(C)(C)c1csc(Nc2cccc3ncccc23)n1` [Compound 7], under setting [1], the IC50 is < 1000 nM.
On to `CC(C)(C)c1csc(NCc2ccccc2)n1` [Compound 3], for which the IC50 under setting [1] was < 1000 nM.
The same measure, in the same setting: with `CC(C)(C)c1csc(Nc2cccnc2CCCC2CCCC2)n1` [Compound 20, (4-tert-Butyl-thiazol-2-yl)-[2-(3-cyclopentyl-propyl)-pyridin-3-yl]-amine] the figure was > 1000 nM; with `CC(C)(C)c1csc(Nc2ccc(Cl)c3ccccc23)n1` [Compound 4], < 1000 nM.
For `CCOC(=O)CC(C)(C)c1csc(Nc2cccc3ccccc23)n1` [Compound 13], the IC50 under setting [1] is > 1000 nM.
With `CC(C)CCCc1ccccc1Nc1nc(C(C)(C)C)cs1` [Compound 49], the IC50 under setting [1] was < 1000 nM.
Consider `CC(=O)c1csc(Nc2cccc3ccccc23)n1` [Compound 15, 4-Acetoyl-2-naphthylamino thiazole], for which, under setting [1], the IC50 is > 1000 nM.
For `Clc1ccc2nc(Nc3cccc4ccccc34)sc2c1` [Compound 18], the IC50 was > 1000 nM.
As to `CC(C)(C)c1csc(Nc2cccc3c2CCCC3)n1` [Compound 5], under setting [1], the IC50 is > 1000 nM.
Same read-out and setting: with `CC(C)(C)c1csc(Nc2ccccc2N2CCOCC2)n1` [Compound 1] the figure was < 1000 nM; with `Cc1sc(Nc2cccc3ccccc23)nc1C(C)(C)C` [Compound 10], > 1000 nM.
As for `Cc1c(Br)cccc1Nc1nc(C(C)(C)C)cs1` [Compound 6], the IC50 under setting [1] was > 1000 nM.
As to `CC(C)(C)Cc1csc(Nc2cccc3ccccc23)n1` [Compound 8], the IC50 under setting [1] was > 1000 nM.
